Reference: patent US10351519B2, “Sulfamate derivative compounds, processes for preparing them and their uses” (BIO-PHARM SOLUTIONS CO., LTD., priority 2016, dated 2019)

How the values were obtained:
Format in all cases: in vivo
Sprague-Dawley rats [1] = experiment: Antiallodynic activity on Chung model (SNL, spinal nerve ligation); details: orally; for ED50: Rattus norvegicus, po, at peak time
Text: Male Sprague-Dawley rats (100-130 g, Orient Bio, Korea) were habituated for 1 week before the experiment and allowed free access to food and water throughout the experimentation. Room temperature and humidity were maintained at 24±2 and 50±10%, respectively. The neuropathic surgery (SNL, Spinal nerve ligation) model was done as described in Kim and Chung (1992). Briefly, an animal was put under gaseous anesthesia with isoflurane. The left lumber spinal nerve L5 and L6 were isolated and tightly ligated with 6-0 silk thread. The wound muscle was closed with Catgut® chrom 3/0 thread and skin was closed with Dafilon 3/0 tread. Sham controls were prepared in the same manner with the spinal nerves exposed, but with no ligated L5 and L6 nerves. Preparation of the vehicle controls were identical to the group treated with compound, except for administration of vehicles without compound in the vehicle control group.
Tactile sensitivity (Mechanical allodynia) was evaluated using von Frey monofilaments before and after treatment, and animals were included in the study only if the withdrawal threshold value was less than 4 g. One week after surgery, SNL-operated animals, sham-operated animals and vehicle control animals were tested for tactile sensitivity with von Frey monofilaments 3 trials in each animal. All Animals were placed in a stainless steel mash chamber and habituated for 30 min in the test cage. The tactile sensitivity for the ipsilateral hind paw was measured using the up-and-down method (Dixon, 1980) with seven von Frey monofilaments (0.4, 1, 2, 4, 6, 8, and 15 g) in 3 trials. The tactile sensitivity test was followed by Dixon's method (Dixon, 1980). The 50% paw withdrawal threshold for each paw was calculated using the following formula: [Xth] log=[vFr] log+ky where [vFr] is the force of the last von Frey used, k=0.2249 which is the average interval (in log units) between the von Frey monofilaments, and y is a value that depends upon the pattern of withdrawal responses (Dixon, 1980).
All animals were fasted 18 h before the administration of the compounds. Antiallodynic effect of compounds were evaluated at the three dose, orally administrated in a volume of 5 ul/g, bw in a vehicle of 30% (v/v) PEG 400 or 20% (v/v) Tween 80. The test was performed at the peak time of efficacy after compound administration.
The relative values compared to the sham group (% control) were calculated and shown in Table 3, which show an antiallodynic effect of the test compounds on SNL model in rats.

ICR mice [2] = experiment: Tail-flick test; details: orally
Experimental: To examine the pain relief effect of the sulfamate compounds, a tail-flick test was conducted, referring to Current Protocols in Neuroscience; Behavioral Neuroscience Unit 8.9.
ICR mice (male, 25-30 g; Orient Bio, Korea) were habituated before test (in test room) for 1 hour. Animals were fasted 2 hr before administration of compounds. Each of the tested compound were orally administered at the 1˜3 dose, 10 ul/g, by bw (n=4-6/group). All compounds were dissolved in a vehicle of 30% (v/v) PEG 400 or 20% (v/v) Tween 80. The control group was treated the vehicle without compounds.
After the administration of compounds, the mice tail were put on a tail-flick analgesia meter. To avoid tissue damage, maximal exposure time to pain stimuli was restricted to 15 seconds. The withdrawal latency was measured to the time to the point when each mouse responded. The relative values compared to the control (% control) were calculated.

ICR mice [3] = experiment: Anti-epilepsy activity, MES test, mouse; details: for ED50: po
Summary of the method: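 Maximal electroshock delivered through corneal electrodes at 60 Hz for 0.2 s: 50 mA for male ICR mice (19–25 g), 150 mA for male SD rats (100–130 g). Compounds given orally in 30% PEG 400 or 20% Tween 80 in saline, tested at peak time, three doses per compound. ED50 for seizure protection derived by Litchfield–Wilcoxon log-probit analysis.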

Sprague-Dawley rats [4] = experiment: Lithium-pilocarpine induced epilepsy test, prevention; details: for ED50: Rattus norvegicus, ip, read-out: Lithium pilocarpine model (pre) ED50; for Lithium pilocarpine model (pre) peak time: i.p.
Experimental: Male Sprague-Dawley rats (purchased from Orient Bio Inc. Korea) of body weight 175-200 grams were used for these studies and 3 rats per cage were housed for 4-5 days. On the day prior to SE, rats received 127 mg/kg lithium chloride (Sigma, St. Louis, Mo., U.S.A.) intraperitoneally (i.p.). Approximately 18-20 h following this treatment, rats were given an i.p. injection of CD97 dose (30-43 mg/kg) pilocarpine (Sigma). An i.p. injection of 2 mg/kg methyl-scopolamine (Sigma) was administered 30 min prior to pilocarpine to block the effects of the muscarinic agonist on peripheral cholinergic receptors. Test drugs were dissolved in 30% PEG 400 or 20% tween80 (Sigma).
The drugs were administered intraperitoneally (i.p.) in a volume of 2 ul/g body weight. Pharmacological effects of all of the test materials were evaluated to compare test groups (n=6) with a control group (n=6). Control group was administered vehicle only. The efficacy was measured 0.5, 1, 2, or 4 hours after the administration of the test material. The time point that the most animals were protected was defined as peak time and the ED50 was determined at peak time. The animals were then transferred to observation cages and observed continuously for 90 min. Seizure was elicited in approximately 95% of the control group. Protection was defined as complete absence of seizure grade 3-5 (Racine scale; Racine, 1972) over the 90-min observation period. The effective dose of the compound necessary to protect 50% of the animals against seizures compared to controls (i.e. ED50) was determined by a curve fitting program (Excel 2007, Microsoft).

Row | Structure (SMILES) | ED50 (Sprague-Dawley rats [1]) | SNL Peak Time (Sprague-Dawley rats [1]) | tail-flick test Peak Time (ICR mice [2]) | tail-flick test efficacy % (ICR mice [2]; 100 mg/kg) | MES test (po) Peak time (ICR mice [3]) | ED50 (ICR mice [3]) | ED50 (Sprague-Dawley rats [4]) | Lithium pilocarpine model (pre) peak time (Sprague-Dawley rats [4]) | SNL efficacy % (Sprague-Dawley rats [1]; 30 mg/kg) | tail-flick test Dose (ICR mice [2])
1 | C[C@H](OS(N)(=O)=O)[C@@H](O)c1c(Cl)cccc1Cl [Example 7, (1S, 2S)-1-(2,6-dichlorophenyl)-1-hydroxypropan-2-yl sulfamate] | 4.4 mg/kg | 0.5 h | 1~2 hr | 100 (19.0%) | 1 h | 40.7 mg/kg | 23.3 mg/kg | (0.5 h) | – | –
2 | COCO[C@H](c1ccccc1Cl)[C@@H](C)OS(N)(=O)=O [Example 70, (1R, 2R)-1-(2-chlorophenyl)-1-(methoxymethoxy)propan-2-yl sulfamate] | 6.5 mg/kg | 1 h | – | – | 2 h | 50.5 mg/kg | 100 mg/kg | (0.5 h) | – | –
3 | C[C@@H](OS(N)(=O)=O)[C@H](O)c1ccccc1Cl [Example 2, (1R, 2R)-1-(2-chlorophenyl)-1-hydroxypropan-2-yl sulfamate] | – | 1 h | – | – | 2 h | 22.8 mg/kg | – | – | 30(38.6%) | –
4 | C[C@@H](OS(N)(=O)=O)[C@H](O)c1c(Cl)cccc1Cl [Example 8, (1R, 2R)-1-(2,6-dichlorophenyl)-1-hydroxypropan-2-yl sulfamate] | 35.3 mg/kg | 1 h | – | – | 2 h | 27.9 mg/kg | 29.3 mg/kg | (2 h) | – | >200 mg/kg
